Test results published in ChEMBL document CHEMBL1201861, “Genomics of Drug Sensitity in Cancer screening data, Wellcome Trust Sanger Institute”.

How the values were obtained:
Assay in all cases: cells
Type in all cases: functional, cell-based
Details in all cases: Homo sapiens
[1] = test system: D-566MG
[2] = test system: DBTRG-05MG;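 also: cell viability assay measuring growth inhibition of human DBTRG-05MG cells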
Description: SANGER: Inhibition of human DBTRG-05MG cell growth in a cell viability assay.

[3] = test system: Daoy;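 also: daoy cell growth inhibition, read out as cell viability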
Description: SANGER: Inhibition of human Daoy cell growth in a cell viability assay.

[4] = test system: ECC10;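 also: growth inhibition of ECC10 cells, read out by a cell viability assay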
Description: SANGER: Inhibition of human ECC10 cell growth in a cell viability assay.

[5] = test system: GCT;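 also: GCT cell line proliferation inhibition, read out with a cell viability assay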
Description: SANGER: Inhibition of human GCT cell growth in a cell viability assay.

[6] = test system: HCC1419;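 also: growth inhibition of human HCC1419 cells, read out as cell viability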
Description: SANGER: Inhibition of human HCC1419 cell growth in a cell viability assay.

[7] = test system: HCC1569;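 also: growth inhibition of human HCC1569 cells, read out with a cell viability assay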
Description: SANGER: Inhibition of human HCC1569 cell growth in a cell viability assay.

[8] = test system: HGC-27;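 also: growth inhibition of human HGC-27 cells, read out in a cell viability assay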
Description: SANGER: Inhibition of human HGC-27 cell growth in a cell viability assay.

[9] = test system: HOP-92;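 also: cell viability readout, with IC50 reflecting inhibition of HOP-92 cell growth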
Description: SANGER: Inhibition of human HOP-92 cell growth in a cell viability assay.

[10] = test system: HSC-3
Description: SANGER: Inhibition of human HSC-3 cell growth in a cell viability assay.

[11] = test system: HT-3;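 also: growth inhibition measured with a cell viability readout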
Description: SANGER: Inhibition of human HT-3 cell growth in a cell viability assay.

[12] = test system: HT55;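 also: cell viability readout measuring growth inhibition of human HT55 cells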
Description: SANGER: Inhibition of human HT55 cell growth in a cell viability assay.

[13] = test system: KU-19-19
Description: SANGER: Inhibition of human KU-19-19 cell growth in a cell viability assay.

[14] = test system: KYSE-410;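 also: growth inhibition of KYSE-410 cells, measured through a cell viability readout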
Description: SANGER: Inhibition of human KYSE-410 cell growth in a cell viability assay.

[15] = test system: KYSE-510;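 also: cell viability readout used to measure how strongly growth of the cell line is suppressed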
Description: SANGER: Inhibition of human KYSE-510 cell growth in a cell viability assay.

[16] = test system: KYSE-520 cell line;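 also: growth inhibition of human KYSE-520 cells, read out with a viability assay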
Description: SANGER: Inhibition of human KYSE-520 cell growth in a cell viability assay.

[17] = test system: MC-IXC;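 also: growth inhibition of MC-IXC cells, read out with a cell viability assay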
Description: SANGER: Inhibition of human MC-IXC cell growth in a cell viability assay.

[18] = test system: MG-63;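 also: growth inhibition of human MG-63 cells, read out with a cell viability assay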
Description: SANGER: Inhibition of human MG-63 cell growth in a cell viability assay.

[19] = test system: NBsusSR;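 also: growth inhibition of the human cell line, read out with a cell viability assay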
Description: SANGER: Inhibition of human NBsusSR cell growth in a cell viability assay.

[20] = test system: NCI-H1993;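 also: growth inhibition of the cancer cell line, assessed with a cell viability assay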
Description: SANGER: Inhibition of human NCI-H1993 cell growth in a cell viability assay.

[21] = test system: NCI-H292;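 also: growth inhibition of NCI-H292 cells, read out with a cell viability assay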
Description: SANGER: Inhibition of human NCI-H292 cell growth in a cell viability assay.

[22] = test system: NCI-H520;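 also: growth inhibition of NCI-H520 cells, measured by a cell viability assay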
Description: SANGER: Inhibition of human NCI-H520 cell growth in a cell viability assay.

[23] = test system: OE33;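 also: growth inhibition of human OE33 cells, measured by a cell viability assay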
Description: SANGER: Inhibition of human OE33 cell growth in a cell viability assay.

[24] = test system: SCC-4;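 also: growth inhibition of human SCC-4 cells, read out as cell viability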
Description: SANGER: Inhibition of human SCC-4 cell growth in a cell viability assay.

[25] = test system: SF-295;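 also: growth inhibition of SF-295 cells, read out with a cell viability assay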
Description: SANGER: Inhibition of human SF295 cell growth in a cell viability assay.

[26] = test system: SJRH30;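 also: growth inhibition of human SJRH30 cells, read out with a cell viability assay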
Description: SANGER: Inhibition of human SJRH30 cell growth in a cell viability assay.

[27] = test system: SNU-387
Description: SANGER: Inhibition of human SNU-387 cell growth in a cell viability assay.

[28] = test system: SW1417;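 also: growth inhibition of human SW1417 cells, read out with a cell viability assay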
Description: SANGER: Inhibition of human SW1417 cell growth in a cell viability assay.

[29] = test system: SW48;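 also: growth inhibition of SW48 cells, read out with a cell viability assay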
Description: SANGER: Inhibition of human SW48 cell growth in a cell viability assay.

[30] = test system: SW780;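 also: growth inhibition of the cells, read out with a cell viability assay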
Description: SANGER: Inhibition of human SW780 cell growth in a cell viability assay.

[31] = test system: SAOS-2;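 also: growth inhibition of human Saos-2 cells determined by a cell viability assay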
Description: SANGER: Inhibition of human Saos-2 cell growth in a cell viability assay.

[32] = test system: T-24;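 also: growth inhibition of T-24 cells, read out with a cell viability assay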
Description: SANGER: Inhibition of human T-24 cell growth in a cell viability assay.

[33] = test system: 639-V;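 also: growth inhibition of 639-V cells, read out with a cell viability assay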
Description: SANGER: Inhibition of human 639-V cell growth in a cell viability assay.

[34] = test system: A2780;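 also: growth inhibition of A2780 cells, read out with a cell viability assay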
Description: SANGER: Inhibition of human A2780 cell growth in a cell viability assay.

[35] = test system: A-427;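 also: growth inhibition of human A-427 cells, read out by a cell viability assay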
Description: SANGER: Inhibition of human A427 cell growth in a cell viability assay.

[36] = test system: AN3-CA;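 also: growth inhibition of human AN3-CA cells measured by a cell viability assay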
Description: SANGER: Inhibition of human AN3-CA cell growth in a cell viability assay.

[37] = test system: C32;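 also: cell viability assay, with IC50 reflecting inhibition of C32 cell growth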
Description: SANGER: Inhibition of human C32 cell growth in a cell viability assay.

[38] = test system: CAL-72;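 also: cell viability assay measuring inhibition of proliferation in the CAL-72 cell line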
Description: SANGER: Inhibition of human CAL-72 cell growth in a cell viability assay.

[39] = test system: TYK-nu;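 also: growth inhibition of human TYK-nu cells, read out by a cell viability assay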
Description: SANGER: Inhibition of human TYK-nu cell growth in a cell viability assay.

[40] = test system: U-118-MG
Description: SANGER: Inhibition of human U-118-MG cell growth in a cell viability assay.

[41] = test system: VM-CUB-1;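 also: cell viability assay measuring growth inhibition of the human VM-CUB-1 cell line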
Description: SANGER: Inhibition of human VM-CUB-1 cell growth in a cell viability assay.

[42] = test system: YH-13;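 also: cell viability readout of growth suppression in the human YH-13 cell line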
Description: SANGER: Inhibition of human YH-13 cell growth in a cell viability assay.

[43] = test system: COLO-678
Description: SANGER: Inhibition of human COLO-678 cell growth in a cell viability assay.

[44] = test system: MKN-1;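 also: growth inhibition of human MKN1 cells, read out by a cell viability measurement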
Description: SANGER: Inhibition of human MKN1 cell growth in a cell viability assay.

[45] = test system: NCI-H2009;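 also: cell viability assay measuring inhibition of NCI-H2009 cell growth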
Description: SANGER: Inhibition of human NCI-H2009 cell growth in a cell viability assay.

## CC(=O)c1c(C)c2cnc(Nc3ccc(N4CCNCC4)cn3)nc2n(C2CCCC2)c1=O [PALBOCICLIB]
[1]
  IC50: > 4000 nM
[2]
  IC50: > 4000 nM
[3]
  IC50: > 4000 nM
[4]
  IC50: 2700 nM
[5]
  IC50: > 4000 nM
[6]
  IC50: > 4000 nM
[7]
  IC50: > 4000 nM
[8]
  IC50: 565 nM
[9]
  IC50: 3500 nM
[10]
  IC50: 966 nM
[11]
  IC50: > 4000 nM
[12]
  IC50: > 4000 nM
[13]
  IC50: > 4000 nM
[14]
  IC50: > 4000 nM
[15]
  IC50: > 4000 nM
[16]
  IC50: > 4000 nM
[17]
  IC50: > 4000 nM
[18]
  IC50: 1620 nM
[19]
  IC50: 743 nM
[20]
  IC50: > 4000 nM
[21]
  IC50: 2850 nM
[22]
  IC50: 747 nM
[23]
  IC50: > 4000 nM
[24]
  IC50: > 4000 nM
[25]
  IC50: > 4000 nM
[26]
  IC50: > 4000 nM
[27]
  IC50: > 4000 nM
[28]
  IC50: > 4000 nM
[29]
  IC50: > 4000 nM
[30]
  IC50: 1960 nM
[31]
  IC50: > 4000 nM
[32]
  IC50: 779 nM
[33]
  IC50: > 4000 nM
[34]
  IC50: > 4000 nM
[35]
  IC50: > 4000 nM
[36]
  IC50: > 4000 nM
[37]
  IC50: > 4000 nM
[38]
  IC50: > 4000 nM
[39]
  IC50: 998 nM
[40]
  IC50: > 4000 nM
[41]
  IC50: > 4000 nM
[42]
  IC50: 3440 nM
[43]
  IC50: > 4000 nM

## C[C@]1(c2nc3c(C(N)=O)cccc3[nH]2)CCCN1 [VELIPARIB]
[1]
  IC50: > 5000 nM
[2]
  IC50: > 5000 nM
[3]
  IC50: > 5000 nM
[4]
  IC50: > 5000 nM
[5]
  IC50: > 5000 nM
[6]
  IC50: > 5000 nM
[7]
  IC50: > 5000 nM
[8]
  IC50: > 5000 nM
[9]
  IC50: > 5000 nM
[10]
  IC50: > 5000 nM
[11]
  IC50: > 5000 nM
[12]
  IC50: > 5000 nM
[13]
  IC50: > 5000 nM
[14]
  IC50: > 5000 nM
[15]
  IC50: > 5000 nM
[16]
  IC50: > 5000 nM
[17]
  IC50: > 5000 nM
[18]
  IC50: > 5000 nM
[44]
  IC50: > 5000 nM
[19]
  IC50: > 5000 nM
[20]
  IC50: > 5000 nM
[45]
  IC50: > 5000 nM
[21]
  IC50: > 5000 nM
[22]
  IC50: > 5000 nM
[23]
  IC50: > 5000 nM
[24]
  IC50: > 5000 nM
[25]
  IC50: > 5000 nM
[27]
  IC50: > 5000 nM
[28]
  IC50: > 5000 nM
[29]
  IC50: > 5000 nM
[30]
  IC50: > 5000 nM
[31]
  IC50: > 5000 nM
[32]
  IC50: > 5000 nM
[33]
  IC50: > 5000 nM
[34]
  IC50: > 5000 nM
[35]
  IC50: > 5000 nM
[36]
  IC50: > 5000 nM
[37]
  IC50: > 5000 nM
[38]
  IC50: > 5000 nM
[39]
  IC50: > 5000 nM
[40]
  IC50: > 5000 nM
[41]
  IC50: > 5000 nM
[42]
  IC50: > 5000 nM
[43]
  IC50: > 5000 nM

## COc1cc(Nc2c(C#N)cnc3cc(OCCCN4CCN(C)CC4)c(OC)cc23)c(Cl)cc1Cl [BOSUTINIB]
[1]
  IC50: 1570 nM
[2]
  IC50: > 2000 nM
[3]
  IC50: > 2000 nM
[4]
  IC50: > 2000 nM
[5]
  IC50: > 2000 nM
[6]
  IC50: > 2000 nM
[7]
  IC50: > 2000 nM
[8]
  IC50: > 2000 nM
[9]
  IC50: > 2000 nM
[10]
  IC50: 1120 nM
[11]
  IC50: > 2000 nM
[12]
  IC50: > 2000 nM
[13]
  IC50: > 2000 nM
[14]
  IC50: > 2000 nM
[15]
  IC50: > 2000 nM
[16]
  IC50: > 2000 nM
[17]
  IC50: > 2000 nM
[18]
  IC50: > 2000 nM
[44]
  IC50: > 2000 nM
[19]
  IC50: > 2000 nM
[20]
  IC50: > 2000 nM
[45]
  IC50: > 2000 nM
[21]
  IC50: 441 nM
[22]
  IC50: > 2000 nM
[23]
  IC50: > 2000 nM
[24]
  IC50: > 2000 nM
[25]
  IC50: > 2000 nM
[27]
  IC50: > 2000 nM
[28]
  IC50: > 2000 nM
[29]
  IC50: > 2000 nM
[30]
  IC50: > 2000 nM
[31]
  IC50: > 2000 nM
[32]
  IC50: > 2000 nM
[33]
  IC50: > 2000 nM
[34]
  IC50: > 2000 nM
[35]
  IC50: > 2000 nM
[36]
  IC50: > 2000 nM
[37]
  IC50: > 2000 nM
[38]
  IC50: > 2000 nM
[39]
  IC50: > 2000 nM
[40]
  IC50: > 2000 nM
[41]
  IC50: > 2000 nM
[42]
  IC50: > 2000 nM
[43]
  IC50: > 2000 nM

## C[C@]12O[C@H](C[C@]1(O)CO)n1c3ccccc3c3c4c(c5c6ccccc6n2c5c31)CNC4=O [LESTAURTINIB]
[1]
  IC50: 96.5 nM
[2]
  IC50: > 2000 nM
[3]
  IC50: 1040 nM
[4]
  IC50: 311 nM
[5]
  IC50: 327 nM
[6]
  IC50: > 2000 nM
[7]
  IC50: > 2000 nM
[8]
  IC50: 190 nM
[9]
  IC50: 909 nM
[10]
  IC50: 46.8 nM
[11]
  IC50: 449 nM
[12]
  IC50: > 2000 nM
[13]
  IC50: 1330 nM
[14]
  IC50: 1410 nM
[15]
  IC50: > 2000 nM
[16]
  IC50: 1930 nM
[17]
  IC50: 13.5 nM
[18]
  IC50: 445 nM
[44]
  IC50: > 2000 nM
[19]
  IC50: 162 nM
[20]
  IC50: > 2000 nM
[45]
  IC50: 1230 nM
[21]
  IC50: 91.4 nM
[22]
  IC50: 203 nM
[23]
  IC50: > 2000 nM
[24]
  IC50: 1360 nM
[25]
  IC50: 428 nM
[26]
  IC50: 1890 nM
[27]
  IC50: 601 nM
[28]
  IC50: 1170 nM
[29]
  IC50: 71.6 nM
[30]
  IC50: 327 nM
[31]
  IC50: 635 nM
[32]
  IC50: > 2000 nM
[33]
  IC50: 689 nM
[34]
  IC50: 94 nM
[35]
  IC50: 23.4 nM
[36]
  IC50: 1250 nM
[37]
  IC50: 182 nM
[38]
  IC50: > 2000 nM
[39]
  IC50: 185 nM
[40]
  IC50: > 2000 nM
[41]
  IC50: 651 nM
[42]
  IC50: 135 nM
[43]
  IC50: > 2000 nM

## Cn1cc(/C=C2\C(=O)Nc3cccnc32)c2ccccc21
[1]
  IC50: > 2000 nM
[2]
  IC50: > 2000 nM
[3]
  IC50: > 2000 nM
[4]
  IC50: > 2000 nM
[5]
  IC50: > 2000 nM
[6]
  IC50: > 2000 nM
[7]
  IC50: > 2000 nM
[8]
  IC50: > 2000 nM
[9]
  IC50: > 2000 nM
[10]
  IC50: > 2000 nM
[11]
  IC50: > 2000 nM
[12]
  IC50: > 2000 nM
[13]
  IC50: > 2000 nM
[14]
  IC50: > 2000 nM
[15]
  IC50: > 2000 nM
[16]
  IC50: > 2000 nM
[17]
  IC50: > 2000 nM
[18]
  IC50: > 2000 nM
[44]
  IC50: > 2000 nM
[19]
  IC50: > 2000 nM
[20]
  IC50: > 2000 nM
[45]
  IC50: > 2000 nM
[21]
  IC50: > 2000 nM
[22]
  IC50: > 2000 nM
[23]
  IC50: > 2000 nM
[24]
  IC50: > 2000 nM
[25]
  IC50: > 2000 nM
[26]
  IC50: > 2000 nM
[27]
  IC50: > 2000 nM
[28]
  IC50: > 2000 nM
[29]
  IC50: > 2000 nM
[30]
  IC50: > 2000 nM
[31]
  IC50: > 2000 nM
[32]
  IC50: 638 nM
[33]
  IC50: > 2000 nM
[34]
  IC50: > 2000 nM
[35]
  IC50: > 2000 nM
[36]
  IC50: > 2000 nM
[37]
  IC50: > 2000 nM
[38]
  IC50: > 2000 nM
[39]
  IC50: > 2000 nM
[40]
  IC50: > 2000 nM
[41]
  IC50: > 2000 nM
[42]
  IC50: > 2000 nM
[43]
  IC50: > 2000 nM

## Cn1c(=O)n(-c2ccc(C(C)(C)C#N)cc2)c2c3cc(-c4cnc5ccccc5c4)ccc3ncc21 [DACTOLISIB]
[1]
  IC50: 17.7 nM
[2]
  IC50: 198 nM
[3]
  IC50: 36.7 nM
[4]
  IC50: 32 nM
[5]
  IC50: 13.7 nM
[6]
  IC50: 38.7 nM
[7]
  IC50: 276 nM
[8]
  IC50: 18.1 nM
[9]
  IC50: 26.5 nM
[10]
  IC50: 12.2 nM
[11]
  IC50: 380 nM
[12]
  IC50: 1310 nM
[13]
  IC50: 31.1 nM
[14]
  IC50: 59.5 nM
[15]
  IC50: 65.8 nM
[16]
  IC50: 253 nM
[17]
  IC50: 70.1 nM
[18]
  IC50: 23.4 nM
[44]
  IC50: 2.8 nM
[19]
  IC50: 24.6 nM
[20]
  IC50: > 2000 nM
[21]
  IC50: 27 nM
[22]
  IC50: 83.1 nM
[23]
  IC50: 189 nM
[24]
  IC50: 71.4 nM
[25]
  IC50: 18.9 nM
[26]
  IC50: 144 nM
[27]
  IC50: 104 nM
[28]
  IC50: > 2000 nM
[29]
  IC50: 201 nM
[30]
  IC50: 23.1 nM
[31]
  IC50: 179 nM
[32]
  IC50: 43.8 nM
[33]
  IC50: 85.4 nM
[34]
  IC50: 106 nM
[35]
  IC50: 183 nM
[36]
  IC50: 5.56 nM
[37]
  IC50: 53.8 nM
[38]
  IC50: 293 nM
[39]
  IC50: 9.94 nM
[40]
  IC50: 134 nM
[41]
  IC50: 33.4 nM
[42]
  IC50: 21.9 nM
[43]
  IC50: > 2000 nM
